Test results published in patent US20080095834A1, “Mitochondriotropic Phospholipid Vesicles” (priority 2005, published 2008).

Tested on: COLO205 colon cancer cells
Experiment: Apoptotic DNA laddering, DNA gel separation analysis
Type: cell-based
Settings: 18 hrs, ceramide 25 μM
Description: FIG. 8 represents a micrograph of DNA gel separation analysis of COLO205 cells incubated with C6 ceramide-loaded mitochondriotropic liposomes according to the invention for 18 hrs, followed by extraction of their DNA. The concentration of ceramide in all samples was 25 μM. Lane A—DNA marker; lane B—untreated control; lane C—ceramide-loaded plain liposomes; lane D—ceramide loaded STPP liposomes according to the invention; lane E—free ceramide. Black arrows indicate the apoptotic DNA ladder. Total amount of DNA was identical in all lanes; and
FIG. 8 represents a micrograph of DNA gel separation analysis of cells of the colon cancer cell line COLO205 incubated with C6 ceramide-loaded mitochondriotropic liposomes according to the invention for 18 hrs, followed by extraction of their DNA. The concentration of ceramide in all samples was 25 μM. Lane A—DNA marker; lane B—untreated control; lane C—ceramide-loaded plain liposomes; lane D—ceramide loaded STPP liposomes according to the invention; lane E—free ceramide. Black arrows indicate the apoptotic DNA ladder. The total amount of DNA was identical in all lanes.

## CCCCCCCCCCCCC/C=C/[C@@H](O)[C@H](CO)NC(=O)CCCCC [free ceramide, C6 ceramide]
  DNA laddering typical of apoptosis: nor cells treated with free ceramide (Lane E, FIG. 8) showed the DNA laddering typical of apoptosis
